Measurements published in the supplement of paper PMC7017272.
± gives the standard deviation of the averaged measurements.

How the values were obtained:
Settings in all cases: treatment time: 3 days
[1] = tested on: UT-SCC-24A; assay: relative IC50 (midpoint of the fitted curve; maximal inhibition may be below 50%); higher = less potent
Protocol: (§1)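 HNSCC cell lines (500 cells/well, 384-well) were cultured on plastic, on top of (2D) or embedded (3D) in Matrigel or human leiomyoma matrix Myogel (500 ug/mL; Myogel 3D mixed with rat collagen I). Cells were treated for 3 days with 5 ten-fold concentrations of each drug, and viability was read by CellTiter-Glo. Viability was normalised to DMSO (0% inhibition) and 100 uM benzethonium chloride (100% inhibition) controls and fitted with the FIMM DSRT pipeline to give IC50 (nM), maximal % inhibition and the drug sensitivity score (DSS). Suffixes _1/_2/_3 on drug names are replicates.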

[2] = tested on: UT-SCC-24A; assay: drug sensitivity score (DSS); higher = more sensitive
Protocol: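 HNSCC cell lines (500 cells/well, 384-well) were cultured on plastic, on top of (2D) or embedded (3D) in Matrigel or human leiomyoma matrix Myogel (500 ug/mL; Myogel 3D mixed with rat collagen I). Cells were treated for 3 days with 5 ten-fold concentrations of each drug, and viability was read by CellTiter-Glo. Suffixes _1/_2/_3 on drug names are replicates.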

[3] = tested on: UT-SCC-42A; assay: drug sensitivity score (DSS); higher = more sensitive; extreme values may be limits of the assay
Procedure, shortened: (§2)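 Three growth formats were used for HPV-negative HNSCC cell lines in 384-well plates at 500 cells/well: bare plastic, wells coated with Matrigel or Myogel (500 µg/mL), and embedding in Matrigel or Myogel plus rat collagen I. Compounds were added at five 10-fold concentrations, and after 3 days CellTiter-Glo 2.0 luminescence was recorded and normalised to vehicle (0.1% DMSO) and cell-killing control wells. IC50, maximal inhibition and drug sensitivity score came from percent-inhibition dose–response fitting in the FIMM pipeline.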

[4] = tested on: UT-SCC-14; assay: as above
Procedure, shortened: as §2

[5] = tested on: UT-SCC-106A; assay: as above
Procedure, shortened: as §2

[6] = tested on: UT-SCC-42B; assay: as above
Procedure, shortened: as §2

[7] = tested on: UT-SCC-81; assay: maximal % inhibition of viability relative to DMSO; higher = stronger effect
Protocol: as §1, with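 “DMSO” for “DMSO (0% inhibition)”, “and” for “and 100 uM”, “chloride” for “chloride (100% inhibition)”, “DSS.” for “the drug sensitivity score (DSS).”, “_1/_2/_3” for “_1/_2/_3 on drug names”, “replicates. Only inhibition-mode (IC50) fits are kept.” for “replicates.”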

[8] = tested on: UT-SCC-24B; assay: as above
Protocol: as §1, with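 “DMSO” for “DMSO (0% inhibition)”, “and” for “and 100 uM”, “chloride” for “chloride (100% inhibition)”, “DSS.” for “the drug sensitivity score (DSS).”, “_1/_2/_3” for “_1/_2/_3 on drug names”, “replicates. Only inhibition-mode (IC50) fits are kept.” for “replicates.”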

[9] = tested on: UT-SCC-28; assay: as above
Protocol: as §1, with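 “DMSO” for “DMSO (0% inhibition)”, “and” for “and 100 uM”, “chloride” for “chloride (100% inhibition)”, “DSS.” for “the drug sensitivity score (DSS).”, “_1/_2/_3” for “_1/_2/_3 on drug names”, “replicates. Only inhibition-mode (IC50) fits are kept.” for “replicates.”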

[10] = culture condition: on top of Myogel
[11] = culture condition: plastic 2D (no matrix)
[12] = culture condition: embedded in Matrigel
[13] = culture condition: embedded in Myogel + collagen I
[14] = culture condition: on top of Matrigel

relative IC50 [1, 10]: 137 nM | relative IC50 [1, 11]: 87.9 nM
SMILES: Cn1cnc2c(F)c(Nc3ccc(Br)cc3Cl)c(C(=O)NOCCO)cc21 [Selumetinib]
drug sensitivity score [2, 12]: 20.7 ± 4.2 DSS | drug sensitivity score [2, 13]: 16.4 ± 1.8 DSS | drug sensitivity score [2, 14]: 19.4 ± 3.9 DSS | drug sensitivity score [2, 10]: 8.63 ± 1.6 DSS | drug sensitivity score [2, 11]: 17.9 ± 3.7 DSS | drug sensitivity score [3, 12]: 10.9 ± 4.8 DSS | drug sensitivity score [3, 13]: 4.23 ± 4.5 DSS | drug sensitivity score [3, 14]: 14.4 ± 5 DSS | drug sensitivity score [3, 10]: 9.23 ± 2 DSS | drug sensitivity score [3, 11]: 10.8 ± 3 DSS | drug sensitivity score [4, 12]: 7.13 ± 6.1 DSS | drug sensitivity score [4, 13]: 5.17 ± 3.2 DSS | drug sensitivity score [4, 14]: 7.17 ± 3 DSS | drug sensitivity score [4, 10]: 3.5 ± 3.6 DSS | drug sensitivity score [4, 11]: 0.833 ± 1.4 DSS | drug sensitivity score [5, 12]: 14.6 ± 2 DSS | drug sensitivity score [5, 13]: 0.867 ± 1.5 DSS | drug sensitivity score [5, 14]: 16.1 ± 0.75 DSS | drug sensitivity score [5, 10]: 1.03 ± 1.7 DSS | drug sensitivity score [5, 11]: 15.7 ± 2.3 DSS | drug sensitivity score [6, 12]: 16.5 ± 4.6 DSS | drug sensitivity score [6, 14]: 8.67 ± 2.3 DSS | drug sensitivity score [6, 10]: 2.13 ± 0.76 DSS | drug sensitivity score [6, 11]: 2.33 ± 2 DSS | maximal % inhibition of viability [7, 12]: 87.8 ± 2% | maximal % inhibition of viability [7, 13]: 39.9 ± 7.8% | maximal % inhibition of viability [7, 14]: 82.63 ± 0.81% | maximal % inhibition of viability [7, 10]: 54.2 ± 2.4% | maximal % inhibition of viability [7, 11]: 68.7 ± 4.2% | maximal % inhibition of viability [8, 12]: 87.67 ± 0.5% | maximal % inhibition of viability [8, 13]: 84 ± 4.5% | maximal % inhibition of viability [8, 14]: 86.67 ± 0.21% | maximal % inhibition of viability [8, 10]: 82.5 ± 3.8% | maximal % inhibition of viability [8, 11]: 89.73 ± 0.6% | maximal % inhibition of viability [9, 12]: 38.9 ± 18% | maximal % inhibition of viability [9, 13]: 39.8 ± 4.3% | maximal % inhibition of viability [9, 14]: 35.8 ± 9.2%
